Experimental data as given in patent US9034866B2 (Genentech, Inc., priority 2012, dated 2015).
Several values for one entry are separate records, joined by “and”; a condition that tells them apart may be missing. Equal entries are not always repeated. Where two headings read alike, the source gives them in different places.

Molecular target: nuclear factor-kappa B (NF-kB)-inducing kinase (NIK) (Homo sapiens (Human), UniProt Q99558)
Assay: NIK Enzyme Inhibition Assay (Transcreener ADP fluorescence polarization)
Type: biochemical
Settings: read-out: NIK ADP-FP (Ki uM)
Experimental: NIK Enzyme Inhibition Assay: The ability of the nuclear factor-kappa B (NF-kB)-inducing kinase (NIK) to catalyze the hydrolysis of adenosine-5′-triphosphate (ATP) was monitored using the Transcreener ADP (adenosine-5′-diphosphate) assay (BellBrook Labs). Purified NIK (0.2-1 nM) derived from a baculovirus-infected insect cell expression system was incubated with test compounds for 1-3.5 hours in 50 mM 2-[4-(2-hydroxyethyl)piperazin-1-yl]ethanesulfonic acid buffer (pH 7.2) containing 10 mM MgCl2, 2 mM dithiothreitol, 10 uM ATP, 0.01% Triton X-100, 0.1% gamma-globulins from bovine blood, 1% dimethylsulfoxide (DMSO), 12 ug/mL ADP antibody and 4 nM ADP-AlexaFluor® 633 tracer. Reactions were quenched by the addition of 20 mM 2,2′,2″,2′″-(ethane-1,2-diyldinitrilo)tetraacetic acid and 0.01% Brij 35. The tracer bound to the antibody was displaced by the ADP generated during the NIK reaction, which causes a decrease in fluorescence polarization that was measured by laser excitation at 633 nm with a Fluorescence Correlation Spectroscopy Plus reader (Evotec AG).

[1] = purified NIK 0.2-1 nM, 10 uM ATP, Morrison's quadratic equation

Sequence of nuclear factor-kappa B (NF-kB)-inducing kinase (NIK) (Q99558 whole entry): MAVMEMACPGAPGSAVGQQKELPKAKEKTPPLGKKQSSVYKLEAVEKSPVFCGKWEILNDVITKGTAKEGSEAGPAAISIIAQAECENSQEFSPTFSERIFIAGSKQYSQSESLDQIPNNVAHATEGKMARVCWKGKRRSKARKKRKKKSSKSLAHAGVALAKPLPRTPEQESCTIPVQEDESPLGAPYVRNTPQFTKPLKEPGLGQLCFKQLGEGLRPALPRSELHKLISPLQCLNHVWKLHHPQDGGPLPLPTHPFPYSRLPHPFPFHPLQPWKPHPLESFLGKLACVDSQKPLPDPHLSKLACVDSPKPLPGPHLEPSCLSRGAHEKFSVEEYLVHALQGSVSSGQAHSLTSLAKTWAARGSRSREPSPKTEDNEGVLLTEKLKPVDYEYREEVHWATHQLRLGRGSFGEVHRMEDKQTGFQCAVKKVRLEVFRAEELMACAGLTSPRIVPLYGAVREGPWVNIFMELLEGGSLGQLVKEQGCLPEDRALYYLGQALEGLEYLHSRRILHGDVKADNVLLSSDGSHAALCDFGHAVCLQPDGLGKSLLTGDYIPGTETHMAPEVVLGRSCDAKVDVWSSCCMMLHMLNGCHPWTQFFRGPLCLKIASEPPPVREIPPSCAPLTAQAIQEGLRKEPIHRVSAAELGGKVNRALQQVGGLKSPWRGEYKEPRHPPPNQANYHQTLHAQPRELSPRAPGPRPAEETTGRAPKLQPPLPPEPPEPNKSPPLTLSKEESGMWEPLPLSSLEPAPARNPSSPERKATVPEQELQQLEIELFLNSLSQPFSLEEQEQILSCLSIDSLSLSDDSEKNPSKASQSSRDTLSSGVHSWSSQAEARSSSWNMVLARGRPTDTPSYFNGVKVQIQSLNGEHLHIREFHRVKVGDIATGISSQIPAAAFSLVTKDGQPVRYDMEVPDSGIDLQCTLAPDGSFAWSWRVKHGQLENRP

SMILES	Ki [1]	Ki [µM]
Cn1cnc(C(C)(O)C#Cc2cc3c(cc2F)OCCn2cc(C(N)=O)nc2-3)c1 (stereo not drawn)	> 5 µM	–
Cc1nc(-c2c(C(N)=O)nc3n2CCOc2cc(F)c(C#CC(C)(C)O)cc2-3)n(CC(F)(F)F)n1	0.502 µM	–
CC(O)(C#Cc1cc2c(cc1F)OCCn1cc(C(N)=O)nc1-2)c1ncc(F)cn1 (stereo not drawn)	4 µM	–
Cn1cnc(C(C)(O)C#Cc2cc3c(cc2F)OCCc2sc(C(N)=O)nc2-3)c1 (stereo not drawn)	> 5 µM	–
CNC(=O)c1c(C(N)=O)nc2n1C1CC(C1)c1cc(F)c(C#C[C@@](C)(O)c3noc(C)n3)cc1-2	–	0.051
CNC(=O)c1c(C(N)=O)nc2n1C1CC(C1)c1cc(F)c(C#CC(C)(O)CO)cc1-2 (stereo not drawn)	0.01 µM	–
CN1CCCC(O)(C#Cc2cc3c(cc2F)OCCc2sc(C(N)=O)nc2-3)C1=O (stereo not drawn)	0.002 µM	–
CC(O)C(C)(O)C#Cc1cc2c(cc1F)OCCn1cc(C(N)=O)nc1-2 (stereo not drawn)	4.9 µM	–
Cc1nc(C(C)(O)C#Cc2cc3c(cc2F)OCCn2cc(C(N)=O)nc2-3)n[nH]1 (stereo not drawn)	3.9 µM	–
CC(O)(C#Cc1cc2c(cc1F)OCCn1cc(C(N)=O)nc1-2)c1ccncn1 (stereo not drawn)	> 5 µM	–
Cn1cc(C(O)c2c(C(N)=O)nc3n2CCOc2cc(F)c(C#CC(C)(C)O)cc2-3)cn1 (stereo not drawn)	0.082 µM	–
Cn1cc([C@H](O)c2c(C(N)=O)nc3n2CCOc2cc(F)c(C#CC(C)(C)O)cc2-3)cn1	0.033 µM	–
CC(O)(C#Cc1cc2c(cc1F)OCCn1c-2nc(C(N)=O)c1C1CC1)CO (stereo not drawn)	0.098 µM	–
CC(O)(C#Cc1cc2c(cc1F)OCCn1c-2nc(C(N)=O)c1C1CC1)c1ccccn1 (stereo not drawn)	0.037 µM	–
CNC(=O)c1c(C(N)=O)nc2n1CCOc1ccc(C#C[C@](C)(O)c3ccccn3)cc1-2	> 5 µM	–
CC(=O)N1CCN(Cc2c(C(N)=O)nc3n2CCOc2ccc(C#CC(C)(C)O)cc2-3)CC1	0.21 µM	–
CN1CCN(Cc2c(C(N)=O)nc3n2CCOc2ccc(C#CC(C)(C)O)cc2-3)CC1	0.95 µM	–

SMILES	Ki [1]	Ki [µM]
CN1CC[C@](O)(C#Cc2ccc3c(c2)-c2nc(C(N)=O)cn2C2CC3C2)C1=O	> 1.2 µM	–
CC(C)(O)C#Cc1ccc2c(c1)-c1nc(C(N)=O)c(Cn3ncc4ccccc43)n1CCO2	0.14 µM	–
CC(C)(O)C#Cc1ccc2c(c1)-c1nc(C(N)=O)c(Cn3ncc4cccnc43)n1CCO2	0.2 µM	–
Cn1ccnc1C(C)(O)C#Cc1cc2c(cc1F)OCCn1cc(C(N)=O)nc1-2 (stereo not drawn)	0.239 µM	–
C[C@@](O)(C#Cc1ccc2c(c1)-n1nc(C(N)=O)cc1C(F)(F)CO2)c1cccnn1	1.6 µM	–
CN1CC[C@@](O)(C#Cc2ccc3c(c2)-c2nc(C(N)=O)c(COc4ccccc4Cl)n2CCO3)C1=O	–	0.004
CC(C)(O)C#Cc1ccc2c(c1)-c1nc(C(N)=O)c(CN3CC[C@@H](C#N)C3)n1CCO2	1.8 µM and 1.1 µM	–
CC(C)(O)C#Cc1cc2c(cc1F)OCCn1c-2nc(C(N)=O)c1C(=O)NC1CCOC1 (stereo not drawn)	0.037 µM	–
COCC(C)(O)C#Cc1cc2c(cc1F)OCCn1cc(C(N)=O)nc1-2 (stereo not drawn)	0.068 µM	–
CNC(=O)C(C)(O)C#Cc1cc2c(cc1F)OCCn1cc(C(N)=O)nc1-2 (stereo not drawn)	1.4 µM	–
Cn1nc(-c2ccncc2)nc1-c1c(C(N)=O)nc2n1CCOc1cc(F)c(C#CC(C)(C)O)cc1-2 (racemic)	0.635 µM	–
CC(O)(C#Cc1cc2c(cc1F)OCCn1cc(C(N)=O)nc1-2)c1ncc[nH]1 (racemic)	0.083 µM	–
CC(C)(C#Cc1cc2c(cc1F)OCCn1cc(C(N)=O)nc1-2)CO (racemic)	> 5 µM	–
CN(C)C1COc2cc(F)c(C#CC(C)(C)O)cc2-c2nc(C(N)=O)sc21 (racemic)	> 5 µM	–
Cc1cc(C(C)(O)C#Cc2cc3c(cc2Cl)OCCn2cc(C(N)=O)nc2-3)no1 (racemic)	> 5 µM	–
CN(C)Cc1c(C(N)=O)nc2n1C1CC(C1)c1cc(F)c(C#CC(C)(C)O)cc1-2 (racemic)	0.6 µM	–
CN1CCN(Cc2c(C(N)=O)nc3n2C2CC(C2)c2cc(F)c(C#CC(C)(C)O)cc2-3)CC1 (racemic)	0.12 µM	–

Further compounds by falling Ki [1], results first:

Ki [1]	SMILES	Ki [µM]
0.033 µM	Cn1cc([C@@H](O)c2c(C(N)=O)nc3n2CCOc2cc(F)c(C#CC(C)(C)O)cc2-3)cn1	–
0.031 µM	Cn1cncc1C(O)c1c(C(N)=O)nc2n1C1CC(C1)c1cc(F)c(C#CC(C)(C)O)cc1-2 (stereo not drawn) [listing 2 of 2 here]	–
0.03 µM	Cc1cc([C@](C)(O)C#Cc2ccc3c(c2)-c2nc(C(N)=O)c(C(=O)N(C)C)n2C2CC3C2)no1 (racemic)	–
0.028 µM	Cc1nnc(C(C)(O)C#Cc2ccc3c(c2)-c2nc(C(N)=O)cn2CCO3)o1 (stereo not drawn)	–
0.021 µM	CC(C)(O)C#Cc1cc2c(cc1F)C1CC(C1)n1c-2nc(C(N)=O)c1CN1CCOCC1	–
0.018 µM	CC(O)(C#Cc1ccc2c(c1)-c1nc(C(N)=O)cn1C1CC2C1)c1nc[nH]n1 (stereo not drawn)	–
0.016 µM	CN1CC[C@@](O)(C#Cc2ccc3c(c2)-c2nc(C(N)=O)c(C(=O)NC4CC4)n2C2CC3C2)C1=O	–
0.014 µM	CC(O)(C#Cc1cc2c(cc1F)C1CC(C1)n1cc(C(N)=O)nc1-2)CO (stereo not drawn)	–
0.014 µM	Cn1cncc1C(O)c1c(C(N)=O)nc2n1C1CC(C1)c1cc(F)c(C#CC3(O)CCCC3)cc1-2 (stereo not drawn)	–
0.014 µM	COCC(C)(O)C#Cc1cc2c(cc1F)C1CC(C1)n1c-2nc(C(N)=O)c1C1CC1 (racemic)	–
0.011 µM	Cn1cncc1C(O)c1c(C(N)=O)nc2n1C1CC(C1)c1cc(F)c(C#CC(C)(C)O)cc1-2 (stereo not drawn) [listing 1 of 2 here]	–
0.0097 µM	COCC(C)(O)C#Cc1ccc2c(c1)-c1nc(C(N)=O)cn1C1CC2C1 (stereo not drawn)	–
0.0072 µM	Cn1nccc1C(O)c1c(C(N)=O)nc2n1C1CC(C1)c1cc(F)c(C#CC(C)(C)O)cc1-2 (racemic)	–
0.0071 µM	CC(O)(C#Cc1ccc2c(c1)-c1nc(C(N)=O)cn1C1CC2C1)c1ccccn1 (stereo not drawn)	–
0.0066 µM	Cc1cc([C@](C)(O)C#Cc2ccc3c(c2)-n2nc(C(N)=O)cc2CCO3)no1	–
0.0065 µM	CC(O)(C#Cc1cc2c(cc1F)C1CC(C1)n1c-2nc(C(N)=O)c1-c1nc(C2CC2)n[nH]1)CO (stereo not drawn)	–

Ki [1]	SMILES	Ki [µM]
0.0057 µM	CNC(=O)c1c(C(N)=O)nc2n1CCOc1ccc(C#CC3(O)CCCCC3)cc1-2	–
0.0051 µM	NC(=O)c1cn2c(n1)-c1cc(C#CC3(O)CCc4cccnc43)ccc1OCC2 (racemic)	–
0.0042 µM	CC(C)NCc1c(C(N)=O)nc2n1CCOc1ccc(C#CC(C)(C)O)cc1-2	–
0.004 µM	CN1CCC(O)(C#Cc2ccc3c(c2)-c2nc(C(N)=O)cn2CCO3)C1=O (stereo not drawn)	–
0.0036 µM	CC(C)(O)C#Cc1cc2c(cc1F)C1CC(C1)c1c-2nc(C(N)=O)n1Cc1ccccc1Cl	–
0.003 µM	Cc1nc([C@](C)(O)C#Cc2ccc3c(c2)-c2nc(C(N)=O)cn2C2CC3C2)no1	–
0.003 µM	CNC(=O)c1c(C(N)=O)nc2n1CCOc1ccc(C#CC(C)(O)CO)cc1-2 (racemic)	–
0.0029 µM	CN1CCCC(O)(C#Cc2ccc3c(c2)-c2nc(C(N)=O)sc2CCO3)C1=O (stereo not drawn)	–
0.0029 µM	Cc1nc([C@](C)(O)C#Cc2ccc3c(c2)-c2nc(C(N)=O)c(C(O)c4ccnn4C)n2C2CC3C2)no1 (stereo partly drawn)	–
0.0024 µM	Cn1nccc1Cc1c(C(N)=O)nc2n1C1CC(C1)c1cc(F)c(C#CC(C)(C)O)cc1-2	–
0.002 µM	CNC(=O)c1c(C(N)=O)nc2n1CCOc1cc(F)c(C#CC(C)(O)CO)cc1-2 (racemic)	–
0.0019 µM	CC(C)(O)C#Cc1ccc2c(c1)-c1nc(C(N)=O)c(CN3CCC(C#N)C3)n1CCO2 (stereo not drawn)	–
0.0013 µM	Cn1nccc1Cc1c(C(N)=O)nc2n1C1CC(C1)c1ccc(C#C[C@@](C)(O)c3ncccn3)cc1-2	–
0.001 µM	CC(O)(C#Cc1cc2c(cc1F)OCCn1cc(C(N)=O)nc1-2)c1c[nH]cn1 (stereo not drawn)	–
0.00068 µM	CC(C)(O)C#Cc1cc2c(cc1F)C1CC(C1)c1[nH]c(C(N)=O)nc1-2 (racemic)	–
0.00054 µM	CC(C)(O)C#Cc1ccc2c(c1)-c1nc(C(N)=O)c(CNC3COC3)n1CCO2	–
